Experiments:
RAW264.7 = assay: Antiinflammatory activity in mouse RAW264.7 cells assessed as inhibition of LPS-induced NO production measured after 18 hrs by Griess assay; assay type: functional, cell-based; settings: RAW264.7, 18 h
HeLa = assay: Cytotoxicity against human HeLa cells after 48 hrs by MTT assay; assay type: functional, cell-based
Hep 3B2 = assay: Cytotoxicity against human Hep3B cells after 48 hrs by MTT assay; assay type: functional, cell-based
HT-29 = assay: Cytotoxicity against human HT-29 cells after 48 hrs by MTT assay; assay type: functional, cell-based; settings: HT-29, 48 h
MDA-MB-231 = assay: Cytotoxicity against human MDA-MB-231 cells after 48 hrs by MTT assay; assay type: functional, cell-based; settings: MDA-MB-231, 48 h
OVCAR = assay: Cytotoxicity against human OVCAR cells after 48 hrs by MTT assay; assay type: functional, cell-based
L02 = assay: Cytotoxicity against human LO2 cells after 48 hrs by MTT assay; assay type: cell-based; settings: l02, 48 h

| Compound | IC50 (RAW264.7) | IC50 (HeLa) | IC50 (Hep 3B2) | IC50 (HT-29) | IC50 (MDA-MB-231) | IC50 (OVCAR) | Activity (L02) |
| --- | --- | --- | --- | --- | --- | --- | --- |
| CC(C)C1=C2C[C@@H]3O[C@@H]([C@H]4C(=O)CC[C@H]4[C@H]3C)[C@@]2(C)[C@@H](O)C1 | > 40 µM | 25 to 38.2 µM | 25 to 38.2 µM | 25 to 38.2 µM | 25 to 38.2 µM | 25 to 38.2 µM | Non-Toxic |
| COC[C@@]1(O)CC[C@H]2[C@@H](C)[C@@H](O)CC3=C(C(C)C)CC[C@]3(C)[C@H]3O[C@@]231 | > 40 µM | 25 to 38.2 µM | 25 to 38.2 µM | 25 to 38.2 µM | 25 to 38.2 µM | 25 to 38.2 µM | Non-Toxic |
| COCC1=C2[C@@H](CC1)[C@@H](C)[C@@H](O)CC1=C(C(C)C)CC[C@]1(C)[C@H]2O | 24.3 µM | 25 to 38.2 µM | 25 to 38.2 µM | 25 to 38.2 µM | 25 to 38.2 µM | 25 to 38.2 µM | Non-Toxic |
| CC(C)C1=C2C[C@H](O)[C@H](C)C3=C(C(=O)CC3)[C@H](O)[C@@]2(C)CC1 | > 40 µM | – | – | – | – | – | – |

More lines, main results first:

| IC50 (RAW264.7) | Compound | IC50 (HeLa) | IC50 (Hep 3B2) | IC50 (HT-29) | IC50 (MDA-MB-231) | IC50 (OVCAR) | Activity (L02) |
| --- | --- | --- | --- | --- | --- | --- | --- |
| > 40 µM | CC(C)C1=C2C[C@H](O)[C@H](C)[C@@H]3CCC(=O)/C3=C/[C@@]2(C)[C@@H](O)C1 | 25 to 38.2 µM | 25 to 38.2 µM | 25 to 38.2 µM | 25 to 38.2 µM | 25 to 38.2 µM | Non-Toxic |
| > 40 µM | COCC1=C2C[C@@]3(C)C(=O)C=C(C(C)C)[C@]34C[C@H](O)[C@H](C)[C@@]2(CC1)O4 | – | – | – | – | – | – |
| > 40 µM | COCC1=C2[C@@H](CC1)[C@@H](C)[C@@H](O)CC1=C(C(C)C)C(=O)C[C@]1(C)[C@H]2O | – | – | – | – | – | – |

Source: ChEMBL document CHEMBL4622888, “Modified Fusicoccane-Type Diterpenoids from Alternaria brassicicola” (J Nat Prod, 2020)
